Assay results: patent US7767659B2, “Synthesis of naturally occurring ecteinascidins and related compounds” (Pharma Mar, S.A., priority 2002, dated 2010)
Read-outs that look alike come from different tables or passages of the source.

Columns and labels:
[1] = tested on: SK-BR-3; experiment: Inhibition of cells growth by colorimetric assay (SRB); details: for CC50: read-out: SK-BR3 LC50
Procedure, shortened: (§1)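 Colorimetric SRB read (490 nm) on triplicate wells after 48 h at 37 °C, 5% CO2. Dose range 10 to 10^−8 μg/ml; 5×10^3 cells/well pre-attached 18 h.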

[2] = tested on: PANC-1; experiment: as above; details: for GI50: read-out: PANC-1 GI50; for CC50: read-out: PANC-1 LC50
Procedure, shortened: as §1

[3] = tested on: LoVo-Dox; experiment: as above; details: for GI50: read-out: LOVO-DOX GI50; for CC50: read-out: LOVO-DOX LC50
Procedure, shortened: as §1

[4] = tested on: IGROV-ET; experiment: as above; details: for GI50: read-out: IGROV-ET GI50; for CC50: read-out: IGROV-ET LC50
Procedure, shortened: as §1

[5] = tested on: K-562; experiment: as above; details: for CC50: read-out: K562 LC50
Procedure, shortened: as §1

[6] = tested on: DU-145; experiment: as above; details: for GI50: read-out: DU145 GI50; for CC50: read-out: DU145 LC50
Procedure, shortened: as §1

[7] = tested on: IGROV-1; experiment: as above; details: for GI50: read-out: IGROV GI50; for CC50: read-out: IGROV LC50
Procedure, shortened: as §1

[8] = tested on: LNCaP; experiment: as above; details: for GI50: read-out: LNCAP GI50; for CC50: read-out: LNCAP LC50
Procedure, shortened: as §1

[9] = tested on: SK-MEL-28; experiment: as above; details: for GI50: read-out: MEL-28 GI50; for CC50: read-out: MEL-28 LC50
Procedure, shortened: as §1

[10] = tested on: HeLa-APL; experiment: as above; details: for GI50: read-out: HELA-APL GI50; for CC50: read-out: HELA-APL LC50
Procedure, shortened: as §1

[11] = tested on: HeLa; experiment: as above; details: for GI50: read-out: HELA GI50; for CC50: read-out: HELA LC50
Procedure, shortened: as §1

[12] = tested on: LoVo; experiment: cells; details: for GI50: read-out: LOVO GI50; for CC50: read-out: LOVO LC50
Procedure, shortened: as §1

[13] = tested on: HT-29; experiment: cells; details: for GI50: read-out: HT29 GI50; for CC50: read-out: HT29 LC50
Procedure, shortened: as §1

[14] = tested on: A-549; experiment: cells; details: for GI50: read-out: A549 GI50; for CC50: read-out: A549 LC50
Procedure, shortened: as §1

[15] = LOVO-DOX, SRB, 48 hours exposure
[16] = IGROV-ET, SRB, 48 hours exposure
[17] = HELA-APL, SRB, 48 hours exposure

In the case of `C=CCN1[C@@H]2c3c(cc(C)c(OC)c3O)C[C@H]1[C@H](C#N)N1C2[C@@H]2SC[C@]3(NCCc4cc(O)c(OC)cc43)C(=O)OC[C@H]1c1c3c(c(C)c(OC(=O)/C=C/c4ccccc4)c12)OCO3` (stereo partly shown) [compound 49], the GI50 ([1]; Homo sapiens, SK-BR-3, 48 h, read-out: SK-BR3 GI50) was 49.6 nM, the CC50 ([1]; Homo sapiens, SK-BR-3, 48 h) was 11.3 µM and the IC (TGI) ([1]; Homo sapiens, SK-BR-3, 48 h, read-out: SK-BR3 TGI) was 1.86 µM. It also gave a GI50 ([2]; Homo sapiens, PANC-1, 48 h) of 179 nM, a CC50 ([2]; Homo sapiens, PANC-1, 48 h) of 3920 nM and an IC (TGI) ([2]; Homo sapiens, PANC-1, 48 h, read-out: PANC-1 TGI) of 0.564 µM. It also gave a GI50 ([3]; Homo sapiens, 48 h) of 672 nM, a CC50 ([3]; Homo sapiens, 48 h) of 11.3 µM and an IC (TGI) ([3]; Homo sapiens, 48 h, read-out: LOVO-DOX TGI) of 11.3 µM. The GI50 ([4]; Homo sapiens, 48 h) was 280 nM, the CC50 ([4]; Homo sapiens, 48 h) was 11.3 µM and the IC (TGI) ([4]; Homo sapiens, 48 h, read-out: IGROV-ET TGI) was 0.616 µM. For the same compound, the GI50 ([5]; Homo sapiens, K562, 48 h, read-out: K562 GI50) was 37.7 nM, the CC50 ([5]; Homo sapiens, K562, 48 h) was 5100 nM and the IC (TGI) ([5]; Homo sapiens, K562, 48 h, read-out: K562 TGI) was 0.311 µM. For the same compound, the GI50 ([6]; Homo sapiens, DU-145, 48 h) was 107 nM, the CC50 ([6]; Homo sapiens, DU-145, 48 h) was 11.3 µM and the IC (TGI) ([6]; Homo sapiens, DU-145, 48 h, read-out: DU145 TGI) was 1.25 µM. For the same compound, the GI50 ([7]; Homo sapiens, IGROV-1, 48 h) was 165 nM, the CC50 ([7]; Homo sapiens, IGROV-1, 48 h) was 1130 nM and the IC (TGI) ([7]; Homo sapiens, IGROV-1, 48 h, read-out: IGROV TGI) was 0.432 µM. For the same compound, the GI50 ([8]; Homo sapiens, LNCaP, 48 h) was 40.5 nM, the CC50 ([8]; Homo sapiens, LNCaP, 48 h) was 442 nM and the IC (TGI) ([8]; Homo sapiens, LNCaP, 48 h, read-out: LNCAP TGI) was 0.175 µM. For the same compound, the GI50 ([9]; Homo sapiens, SK-MEL-28, 48 h) was 181 nM, the CC50 ([9]; Homo sapiens, SK-MEL-28, 48 h) was 701 nM and the IC (TGI) ([9]; Homo sapiens, SK-MEL-28, 48 h, read-out: MEL-28 TGI) was 0.356 µM. For the same compound, the GI50 ([10]; Homo sapiens, 48 h) was 182 nM, the CC50 ([10]; Homo sapiens, 48 h) was 701 nM and the IC (TGI) ([10]; Homo sapiens, 48 h, read-out: HELA-APL TGI) was 0.357 µM. The GI50 ([11]; Homo sapiens, HeLa, 48 h) was 189 nM, the CC50 ([11]; Homo sapiens, HeLa, 48 h) was 929 nM and the IC (TGI) ([11]; Homo sapiens, HeLa, 48 h, read-out: HELA TGI) was 0.418 µM. It also gave a GI50 ([12]; Homo sapiens, LoVo, 48 h) of 250 nM, a CC50 ([12]; Homo sapiens, LoVo, 48 h) of 0.89 µM and an IC (TGI) ([12]; Homo sapiens, LoVo, 48 h, read-out: LOVO TGI) of 0.471 µM. It also gave a GI50 ([13]; Homo sapiens, HT-29, 48 h) of 194 nM, a CC50 ([13]; Homo sapiens, HT-29, 48 h) of 11.3 µM and an IC (TGI) ([13]; Homo sapiens, HT-29, 48 h, read-out: HT29 TGI) of 0.588 µM. For the same compound, the GI50 ([14]; Homo sapiens, A549, 48 h) was 184 nM, the CC50 ([14]; Homo sapiens, A549, 48 h) was 1010 nM and the IC (TGI) ([14]; Homo sapiens, A549, 48 h, read-out: A549 TGI) was 0.431 µM.
In the case of `COC1=C(C)C(=O)C2=C(C1=O)C1C3C4SCC(NC(C)=O)C(=O)OCC(c5c6c(c(C)c(OC(C)=O)c54)OCO6)N3C(O)C(C2)N1C` (stereo not shown) [ET-637-quinone, ecteinascidin 637 quinone], the “SK-BR3 TGI” value ([1]; SK-BR3, SRB, 48 hours exposure) was 2.67E−09 Molar, the CC50 ([1]; SK-BR3, SRB, 48 hours exposure) was 0.00851 µM and the “PANC-1 TGI” value ([2]; PANC-1, SRB, 48 hours exposure) was 8.24E−09 Molar. For the same compound, the GI50 ([2]; PANC-1, SRB, 48 hours exposure) was 3.72 nM, the CC50 ([2]; PANC-1, SRB, 48 hours exposure) was 3.42 nM and the “LOVO-DOX TGI” value [3, 15] was 9.62E−07 Molar. The GI50 [3, 15] was 262 nM, the CC50 [3, 15] was 0.09 µM and the “IGROV-ET TGI” value [4, 16] was 6.91E−08 Molar. The GI50 [4, 16] was 34.2 nM, the CC50 [4, 16] was 0.139 µM and the “K562 TGI” value ([5]; K562, SRB, 48 hours exposure) was 1.97E−09 Molar. The CC50 ([5]; K562, SRB, 48 hours exposure) was 14.4 nM, the “DU145 TGI” value ([6]; DU145, SRB, 48 hours exposure) was 6.30E−09 Molar and the GI50 ([6]; DU145, SRB, 48 hours exposure) was 3.74 nM. The CC50 ([6]; DU145, SRB, 48 hours exposure) was 0.0153 µM, the “IGROV TGI” value ([7]; IGROV, SRB, 48 hours exposure) was 5.80E−09 Molar and the GI50 ([7]; IGROV, SRB, 48 hours exposure) was 2.76 nM. For the same compound, the CC50 ([7]; IGROV, SRB, 48 hours exposure) was 12.1 nM, the “LNCAP TGI” value ([8]; LNCAP, SRB, 48 hours exposure) was 3.64E−09 Molar and the GI50 ([8]; LNCAP, SRB, 48 hours exposure) was 1.78 nM. The CC50 ([8]; LNCAP, SRB, 48 hours exposure) was 7.44 nM, the “MEL-28 TGI” value ([9]; MEL-28, SRB, 48 hours exposure) was 5.34E−09 Molar and the GI50 ([9]; MEL-28, SRB, 48 hours exposure) was 2.96 nM. The CC50 ([9]; MEL-28, SRB, 48 hours exposure) was 9.61 nM, the “HELA-APL TGI” value [10, 17] was 5.12E−09 Molar and the GI50 [10, 17] was 2.39 nM. The CC50 [10, 17] was 10.9 nM, the “HELA TGI” value ([11]; HELA, SRB, 48 hours exposure) was 4.88E−09 Molar and the GI50 ([11]; HELA, SRB, 48 hours exposure) was 2.24 nM. For the same compound, the CC50 ([11]; HELA, SRB, 48 hours exposure) was 10.6 nM, the “LOVO TGI” value ([12]; LOVO, SRB, 48 hours exposure) was 8.51E−09 Molar and the GI50 ([12]; LOVO, SRB, 48 hours exposure) was 3.98 nM. For the same compound, the CC50 ([12]; LOVO, SRB, 48 hours exposure) was 6.08 µM, the “HT29 TGI” value ([13]; HT29, SRB, 48 hours exposure) was 7.78E−09 Molar and the GI50 ([13]; HT29, SRB, 48 hours exposure) was 3.32 nM. The CC50 ([13]; HT29, SRB, 48 hours exposure) was 2.26 µM, the “A549 TGI” value ([14]; A549, SRB, 48 hours exposure) was 1.09E−08 Molar and the GI50 ([14]; A549, SRB, 48 hours exposure) was 4.42 nM. For the same compound, the CC50 ([14]; A549, SRB, 48 hours exposure) was 51.5 nM.
